Tested on: 628569-122-R-J1-PDC complex spheroid viability
Experiment: Anticancer human tumor 628569-122-R-J1-PDC patient-derived head and neck squamous carcinoma cell line growth inhibition [CLK]
Conditions: for IC50: curve of first compound; for viability, T/C: stronger effect = lower value; active = viability on the fitted dose curve at most 10% of control; inactive = the rest
Procedure, shortened: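 Multi-cell-type spheroids combined patient-derived tumor cells with HUVEC endothelial cells and human mesenchymal stem cells. Paired agents were dosed in half-log steps down from about clinical Cmax, or from 10 microM where Cmax was unknown.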

[1] = second compound 0.0316 µM, first compound 0.0316 µM
[2] = second compound 0.0316 µM, first compound 0.1 µM
[3] = second compound 0.0316 µM, first compound 0.316 µM
[4] = second compound 0.0316 µM, first compound 1 µM
[5] = second compound 0.0316 µM, first compound 3.16 µM
[6] = second compound 0.0316 µM, first compound 10 µM
[7] = second compound 0.1 µM, first compound 0.0316 µM
[8] = second compound 0.1 µM, first compound 0.1 µM
[9] = second compound 0.1 µM, first compound 0.316 µM
[10] = second compound 0.1 µM, first compound 1 µM
[11] = second compound 0.1 µM, first compound 3.16 µM
[12] = second compound 0.1 µM, first compound 10 µM
[13] = second compound 0.316 µM, first compound 0.0316 µM
[14] = second compound 0.316 µM, first compound 0.1 µM
[15] = second compound 0.316 µM, first compound 0.316 µM
[16] = second compound 0.316 µM, first compound 1 µM
[17] = second compound 0.316 µM, first compound 3.16 µM
[18] = second compound 0.316 µM, first compound 10 µM
[19] = second compound 1 µM, first compound 0.0316 µM
[20] = second compound 1 µM, first compound 0.1 µM
[21] = second compound 1 µM, first compound 0.316 µM
[22] = second compound 1 µM, first compound 1 µM
[23] = second compound 1 µM, first compound 3.16 µM
[24] = second compound 1 µM, first compound 10 µM
[25] = second compound 3.16 µM, first compound 0.0316 µM
[26] = second compound 3.16 µM, first compound 0.1 µM
[27] = second compound 3.16 µM, first compound 0.316 µM
[28] = second compound 3.16 µM, first compound 1 µM
[29] = second compound 3.16 µM, first compound 3.16 µM
[30] = second compound 3.16 µM, first compound 10 µM
[31] = second compound 10 µM, first compound 0.0316 µM
[32] = second compound 10 µM, first compound 0.1 µM
[33] = second compound 10 µM, first compound 0.316 µM
[34] = second compound 10 µM, first compound 1 µM
[35] = second compound 10 µM, first compound 3.16 µM
[36] = second compound 10 µM, first compound 10 µM
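Also: spheroids exposed to agents for seven days before readout.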
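For viability, T/C in this document: 100% = DMSO vehicle control viability.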

COc1cccc2c1C(=O)c1c(O)c3c(c(O)c1C2=O)CC(O)(C(=O)CO)CC3OC1CC(N)C(O)C(C)O1 (stereo unspecified) + CN1CCN(c2cc(C(=O)Nc3cc4cc(-c5cnn(C)c5)ccc4cn3)ccn2)CC1
658 nM: IC50 (second compound 0.0316 µM)
active: viability, T/C [5] 9.76% | viability, T/C [6] 6.19% | viability, T/C [11] 11.4% | viability, T/C [12] 6.38% | viability, T/C [16] 4.91% | viability, T/C [17] 9.87% | viability, T/C [18] 7.68% | viability, T/C [19] 7.46% | viability, T/C [20] 5.6% | viability, T/C [21] 6.96% | viability, T/C [22] 8.8% | viability, T/C [23] 7.92% | viability, T/C [24] 4.27% | viability, T/C [26] 6.4% | viability, T/C [27] 4.58% | viability, T/C [28] 8.38% | viability, T/C [29] 7.51% | viability, T/C [30] 3.19% | viability, T/C [31] 2.99% | viability, T/C [32] 3.91% | viability, T/C [33] 1.4% | viability, T/C [34] 7.4% | viability, T/C [35] 3.49% | viability, T/C [36] 0.29%
inactive: viability, T/C [1] 79.8% | viability, T/C [2] 64.6% | viability, T/C [3] 114% | viability, T/C [4] 29.3% | viability, T/C [7] 69.3% | viability, T/C [8] 85.4% | viability, T/C [9] 96.8% | viability, T/C [10] 17.1% | viability, T/C [13] 36.8% | viability, T/C [14] 58% | viability, T/C [15] 15% | viability, T/C [25] 10.7%
< 31.6 nM: IC50 (second compound 0.316 µM) | IC50 (second compound 1 µM) | IC50 (second compound 3.16 µM) | IC50 (second compound 10 µM)
567 nM: IC50 (second compound 0.1 µM)

CCCS(=O)(=O)Nc1ccc(F)c(C(=O)c2c[nH]c3ncc(-c4ccc(Cl)cc4)cc23)c1F + CNC(=O)c1ccc(Nc2nc(OC3CCCC3)c3c(-c4ccc5nc(C)oc5c4)c[nH]c3n2)c(OC)c1
< 31.6 nM: IC50 (second compound 1 µM) | IC50 (second compound 3.16 µM) | IC50 (second compound 10 µM)
inactive: viability, T/C [1] 85.7% | viability, T/C [2] 86.2% | viability, T/C [3] 72.4% | viability, T/C [4] 90.2% | viability, T/C [5] 91% | viability, T/C [6] 73.5% | viability, T/C [7] 58% | viability, T/C [8] 63.7% | viability, T/C [9] 54% | viability, T/C [10] 57.4% | viability, T/C [11] 62% | viability, T/C [12] 68.4% | viability, T/C [13] 51.7% | viability, T/C [14] 49.9% | viability, T/C [15] 49.7% | viability, T/C [16] 64.8% | viability, T/C [17] 49.6% | viability, T/C [18] 56% | viability, T/C [19] 48% | viability, T/C [20] 42.3% | viability, T/C [21] 43.4% | viability, T/C [22] 45.7% | viability, T/C [23] 52.3% | viability, T/C [24] 50.9% | viability, T/C [25] 43.9% | viability, T/C [26] 42.1% | viability, T/C [27] 46.1% | viability, T/C [28] 44.2% | viability, T/C [29] 53% | viability, T/C [30] 45.7% | viability, T/C [31] 39.7% | viability, T/C [32] 39.1% | viability, T/C [33] 40.8% | viability, T/C [34] 34.7% | viability, T/C [35] 50.4% | viability, T/C [36] 51.1%
> 10000 nM: IC50 (second compound 0.0316 µM) | IC50 (second compound 0.1 µM) | IC50 (second compound 0.316 µM)

COC1C=CCC(C)C(C)S(=O)(=O)NC(=O)c2ccc3c(c2)N(CC2CCC21)CC1(CCCc2cc(Cl)ccc21)CO3 (stereo unspecified) + CNC(=O)c1ccc(Nc2nc(OC3CCCC3)c3c(-c4ccc5nc(C)oc5c4)c[nH]c3n2)c(OC)c1
inactive: viability, T/C [1] 103% | viability, T/C [2] 87.7% | viability, T/C [3] 64.8% | viability, T/C [4] 55.4% | viability, T/C [5] 48.4% | viability, T/C [6] 43.5% | viability, T/C [7] 58.7% | viability, T/C [8] 51% | viability, T/C [9] 47.7% | viability, T/C [10] 40.3% | viability, T/C [11] 34.8% | viability, T/C [12] 34.3% | viability, T/C [13] 46.3% | viability, T/C [14] 49.7% | viability, T/C [15] 36.7% | viability, T/C [16] 33.1% | viability, T/C [17] 35.8% | viability, T/C [18] 33.4% | viability, T/C [19] 51.2% | viability, T/C [20] 45.9% | viability, T/C [21] 36.9% | viability, T/C [22] 35.9% | viability, T/C [23] 46% | viability, T/C [24] 34.6% | viability, T/C [25] 43.2% | viability, T/C [26] 41.1% | viability, T/C [27] 33.4% | viability, T/C [28] 29.4% | viability, T/C [29] 30.9% | viability, T/C [30] 25.4% | viability, T/C [31] 40.1% | viability, T/C [32] 38.4% | viability, T/C [33] 32.1% | viability, T/C [34] 30.5% | viability, T/C [35] 35.9% | viability, T/C [36] 26.4%
142 nM: IC50 (second compound 0.1 µM)
2000 nM: IC50 (second compound 0.0316 µM)
< 31.6 nM: IC50 (second compound 0.316 µM) | IC50 (second compound 1 µM) | IC50 (second compound 3.16 µM) | IC50 (second compound 10 µM)

Reference: PubChem BioAssay AID2060611 (Molecular Pharmacology Branch, DTP, NCI, 2025)
